Melting point data for 50 compounds are collected here from US6337344B1, “Indole derivatives as inhibitors or factor Xa” (Aventis Pharma Deutschland GmbH, priority 1997, dated 2002).

Counter-ions that a name gives are not always drawn.

Turning to `COc1cccc2c1cc(C(=O)NCCc1ccc(O)cc1)n2Cc1cccc(/C(N)=N/O)c1` [Example 51, 1-(3-Hydroxyamidino-benzyl)-4-methoxy-1H-indole-2-carboxylic acid 2-(4-hydroxy-phenyl)-ethyl amide], the melting point (usually the temperature of the solid-liquid transition) is 173 to 175 °C (dec.).

On to `CC(=O)O.CC(=O)[O-].C[N+](C)(C)c1ccc(CNC(=O)c2cc3cc(F)ccc3n2Cc2cccc(C(=N)N)c2)cc1`, for which the melting point was 172 °C (dec.). For `CC(=O)O.N=C(N)c1cccc(Cn2c(C(=O)NCc3ccccc3)cc3ccccc32)c1`, the melting point was 266 to 268 °C (dec.).

With `CC(=O)O.CC(=O)[O-].Cc1cccc2c1cc(C(=O)NCc1ccc([N+](C)(C)C)cc1)n2Cc1cccc(C(=N)N)c1`, the melting point was 89 °C (dec.).

With `C[N+](C)(C)c1ccc(CNC(=O)c2cc3cc(N)ccc3n2Cc2cccc(C(=N)N)c2)cc1.O=C(O)C(F)(F)F.O=C(O)C(F)(F)F.O=C([O-])C(F)(F)F`, the melting point was 114 °C (dec.). As to `CC(=O)O.C[N+](C)(C)c1ccc(CNC(=O)c2cc3cc(S(C)(=O)=O)ccc3n2Cc2cccc(C(=N)N)c2)cc1.O=C([O-])C(F)(F)F`, the melting point is 70 °C (dec.). Compound `C[N+](C)(C)c1ccc(CNC(=O)c2cc3cc(F)ccc3n2Cc2cccc(C(=N)N)c2)cc1.O=C(O)C(F)(F)F.O=C([O-])C(F)(F)F` gave a melting point of 120 to 124 °C.

For the compound `COc1cccc2c1cc(C(=O)NCCc1ccncc1)n2Cc1cccc(/C(N)=N/O)c1.Cl.Cl`, the melting point is 215 to 217 °C. `COc1cccc2c1cc(C(=O)NCCc1ccc(O)cc1)n2Cc1cccc(C(=N)N)c1.O=C(O)C(F)(F)F` displayed a melting point of 140 to 142 °C. Turning to `N=C(N)c1ccc(Cn2c(C(=O)NCc3ccc(Cl)cc3)cc3ccccc32)cc1.O=C(O)C(F)(F)F`, the melting point was 268 °C (dec.). For `C[N+](C)(C)c1ccc(CNC(=O)c2cc3cc(O)ccc3n2Cc2cccc(C(=N)N)c2)cc1.O=C(O)C(F)(F)F.O=C([O-])C(F)(F)F`, the melting point is 78 °C (dec.). `CN(C)c1ccc(CNC(=O)c2cc3ccccc3n2Cc2cccnc2)cc1`: the melting point was in the range of 108 to 110 °C.

Turning to `Cc1cccc2c1cc(C(=O)NCc1ccc(N(C)C)cc1)n2Cc1cccc(C(=N)N)c1.O=C(O)C(F)(F)F.O=C(O)C(F)(F)F`, the melting point was 106 °C (dec.).

For `CC(=O)O.CC(=O)[O-].C[N+](C)(C)c1ccc(CNC(=O)c2cc3cc(Br)ccc3n2Cc2cccc(C(=N)N)c2)cc1`, the melting point is 86 °C (dec.).

Take `C[N+](C)(C)c1ccc(CNC(=O)c2cc3cc(OCc4ccccc4)ccc3n2Cc2cccc(C(=N)N)c2)cc1.O=C(O)C(F)(F)F.O=C([O-])C(F)(F)F` [Example 56, [4-({[5-Benzyloxy-1-(3-amidino-benzyl)-1H-indole-2-carbonyl]-amino}-methyl)-phenyl]-trimethyl-ammonium trifluoroacetate trifluoroacetic acid salt]: the melting point was 60 °C (dec.).

`N=C(N)c1cccc(CNC(=O)c2c(Cl)c3ccccc3n2Cc2cccc(C(=N)N)c2)c1` (as salt: trifluoroacetic acid salt) [Example 115] came in with a melting point of 227 °C.

The compound `COc1cccc2c1cc(C(=O)NCCc1ccncc1)n2Cc1cccc(/C(N)=N/O)c1` [Example 49, 1-(3-Hydroxyamidino-benzyl)-4-methoxy-1H-indole-2-carboxylic acid 2-(4-pyridyl)-ethyl amide] gave a melting point of 220 to 222 °C. `CC(=O)O.CC(=O)[O-].C[N+](C)(C)c1ccc(CNC(=O)c2cc3c(Br)cccc3n2Cc2cccc(C(=N)N)c2)cc1`: the melting point is 145 °C (dec.).

Take `CC[N+](C)(C)c1ccc(CNC(=O)c2cc3cc(F)ccc3n2Cc2cccc(C(=N)N)c2)cc1.O=C(O)C(F)(F)F.O=C([O-])C(F)(F)F`: the melting point was 73 to 75 °C (dec.). `N=C(N)c1cccc(Cn2c(C(=O)NCc3cc(Cl)cc(Cl)c3)cc3c(O)cccc32)c1` (as salt: trifluoroacetic acid salt) [Example 120] showed a melting point of 117 °C. `C[N+](C)(C)c1ccc(CNC(=O)c2c(Cl)c3ccccc3n2Cc2cccc(C(=N)N)c2)cc1` (as salt: trifluoroacetic acid salt) [Example 106] came in with a melting point of 57 °C. The value for `COc1cccc2c1cc(C(=O)NCCc1cc[n+](C)cc1)n2Cc1cccc(C(=N)N)c1.O=C(O)C(F)(F)F.O=C([O-])C(F)(F)F` was 164 °C (dec.). Take `Cc1cccc2c1cc(C(=O)NCc1ccc([N+](C)(C)Cc3ccccc3)cc1)n2Cc1cccc(C(=N)N)c1.O=C(O)C(F)(F)F.O=C([O-])C(F)(F)F`: the melting point is 113 °C (dec.). For `C[n+]1ccc(CNC(=O)c2cc3cc(N)ccc3n2Cc2cccc(C(=N)N)c2)cc1.O=C(O)C(F)(F)F.O=C(O)C(F)(F)F.O=C([O-])C(F)(F)F`, the melting point was 115 °C. The value for `CC(=O)O.C[C@@H](NC(=O)c1cc2cc(OCc3ccccc3)ccc2n1Cc1cccc(C(=N)N)c1)c1ccccc1` was 72 °C (dec.). In the case of `Cl.N=C(N)c1ccc(Cn2c(C(=O)NCc3ccccc3)cc3ccccc32)cc1`, the melting point is 266 to 268 °C (dec.).

Turning to `C[N+](C)(C)c1ccc(CNC(=O)c2cc3c(OCc4ccccc4)cccc3n2Cc2cccc(C(=N)N)c2)cc1.[I-]` [Example 68, [4-({[1-(3-Amidino-benzyl)-4-benzyloxy-1H-indole-2-carbonyl]-amino}-methyl)-phenyl]-trimethyl-ammonium iodide hydroiodide], the melting point is 158 °C (dec.). As for `N=C(N)c1cccc(Cn2c(C(=O)NCc3ccc(Cl)cc3)cc3ccccc32)c1.O=C(O)C(F)(F)F`, the melting point was 230 °C (dec.).

Take `COc1cccc2c1cc(C(=O)NCc1ccc(O)cc1)n2Cc1cccc(C(=N)N)c1.Cl`: the melting point is 202 °C (dec.).

Regarding `C[N+](C)(Cc1ccccc1)c1ccc(CNC(=O)c2cc3cc(F)ccc3n2Cc2cccc(C(=N)N)c2)cc1.Cl.[Cl-]`, the melting point was 136 °C. Turning to `N=C(N)c1cccc(CNC(=O)c2cc3cc(OCc4ccccc4)ccc3n2Cc2cccc(C(=N)N)c2)c1` (as salt: hydroiodid) [Example 59, 1-(3-Amidino-benzyl)-5-benzyloxy-1H-indole-2-carboxylic acid 3-amidino-benzylamide dihydroiodide], the melting point is 138 °C (dec.). The value for `C[N+](C)(C)c1ccc(CNC(=O)c2cc3cc(Cl)ccc3n2Cc2cccc(C(=N)N)c2)cc1.O=C(O)C(F)(F)F.O=C([O-])C(F)(F)F` was 112 °C (dec.); that for `N=C(N)c1cccc(CNC(=O)c2cc3cc(O)ccc3n2Cc2cccc(C(=N)N)c2)c1.O=C(O)C(F)(F)F.O=C(O)C(F)(F)F` was 125 °C (dec.); that for `CC(=O)O.CC(=O)O.Cc1cccc2c1cc(C(=O)OCc1cccc(C(=N)N)c1)n2Cc1cccc(C(=N)N)c1` was 53 °C (dec.).

In the case of `N=C(N)c1cccc(Cn2c(C(=O)NCCc3ccc(Cl)cc3Cl)cc3c(O)cccc32)c1.O=C(O)C(F)(F)F`, the melting point was 144 °C. Take `N=C(N)c1cccc(Cn2c(C(N)=O)cc3ccccc32)c1.O=C(O)C(F)(F)F`: the melting point was 278 °C (dec.). On to `N=C(N)c1cccc(CNC(=O)c2cc3c(O)cccc3n2Cc2cccc(C(=N)N)c2)c1.O=C(O)C(F)(F)F.O=C(O)C(F)(F)F` [Example 77, 1-(3-Amidino-benzyl)-4-hydroxy-1H-indole-2-carboxylic acid 3-amidino-benzylamide trifluoroacetic acid salt], for which the melting point lay in the range of 128 to 131 °C.

For `C#CC[N+](C)(C)c1ccc(CNC(=O)c2cc3cc(F)ccc3n2Cc2cccc(C(=N)N)c2)cc1.CC(=O)O.CC(=O)[O-]`, the melting point was 109 °C (dec.). The value for `CC(=O)O.CC(=O)[O-].C[N+](C)(C)c1ccc(CNC(=O)c2cc3cc(F)ccc3n2Cc2cccc(C3=NCCN3)c2)cc1` was 51 °C (dec.); that for `COC(=O)c1cccc(CNC(=O)c2cc3c(O)cccc3n2Cc2cccc(C(=N)N)c2)c1` (as salt: trifluoroacetic acid salt) [Example 132] was 95 °C; that for `N=C(N)c1cccc(CNC(=O)Cc2cn(Cc3cccc(C(=N)N)c3)c3ccccc23)c1.O=C(O)C(F)(F)F.O=C(O)C(F)(F)F` was 196 °C (dec.). Take `CN(C)c1ccc(CNC(=O)c2cc3cc(F)ccc3n2Cc2cccc(C(=N)N)c2)cc1.O=C(O)C(F)(F)F.O=C(O)C(F)(F)F`: the melting point is 90 °C (dec.). `CN(C)c1ccc(CNC(=O)c2cn(Cc3cccc(C(=N)N)c3)c3ccccc23)cc1.O=C(O)C(F)(F)F.O=C(O)C(F)(F)F` yielded a melting point of 92 to 96 °C. As to `Cc1cccc2c1cc(C(=O)NCc1ccc([N+](C)(C)C)cc1)n2Cc1cccc(C(=N)N)c1.O=C(O)C(F)(F)F.O=C([O-])C(F)(F)F` [Example 35, [4-({[1-(3-Amidino-benzyl)-4-methyl-1H-indole-2-carbonyl]-amino}-methyl)-phenyl]-trimethyl-ammonium trifluoroacetate trifluoroacetic acid salt], the melting point was 81 °C (dec.). For `N=C(N)c1cccc(COC(=O)c2cc3ccccc3n2Cc2cccc(C(=N)N)c2)c1.O=C(O)C(F)(F)F.O=C(O)C(F)(F)F`, the melting point is 258 °C.

As for `CC(=O)O.CCOC(=O)c1cc2c(C)cccc2n1Cc1cccc(C(=N)N)c1`, the melting point was 187 °C (dec.). As for `CC(=O)O.CC(=O)O.N=C(N)c1cccc(COC(=O)c2cc3cc(OCc4ccccc4)ccc3n2Cc2cccc(C(=N)N)c2)c1`, the melting point was 147 °C (dec.). In the case of `C=CC[N+](C)(C)c1ccc(CNC(=O)c2cc3cc(F)ccc3n2Cc2cccc(C(=N)N)c2)cc1.CC(=O)O.[Cl-]`, the melting point was 133 °C (dec.). For `N=C(N)c1ccc(Cn2c(C(=O)NC(c3ccccc3)c3ccncc3)cc3ccccc32)cc1.O=C(O)C(F)(F)F.O=C(O)C(F)(F)F` (racemic), the melting point is 150 °C. Compound `COc1cccc2c1cc(C(=O)NC(c1ccccc1)c1cc[n+](C)cc1)n2Cc1cccc(C(=N)N)c1.O=C(O)C(F)(F)F.O=C([O-])C(F)(F)F` (racemic) [Example 24, (RS)-4-({[1-(3-Amidino-benzyl)-4-methoxy-1H-indole-2-carbonyl]-amino}-phenyl-methyl)-1-methyl-pyridinium trifluoroacetate trifluoroacetic acid salt] showed a melting point of 135 °C.
